According to patent US12552783B2, “Modulators of proteolysis and associated methods of use” (Arvinas Operations, Inc., priority 2018, dated 2026):

Target: KRas (Homo sapiens, UniProt P01116, G12C)
Test: KRas degradation in NCI-H2030 cells by Western blot, normalized to GAPDH (data of Table 14)
Format: cell-based
Design: host or cells: NCI-H2030
Conditions: H2030 cells; for Percent Degradation at Indicated Concentration (μM): 0.3: 0.3 μM; for Percent Degradation at Indicated Concentration (μM): 1: 1 μM; for Percent Degradation at Indicated Concentration (μM): 3: 3 μM; for Dmax: NCI-H2030
Method in brief: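 Both lines are homozygous for KRas G12C and were serum-starved for 24 h before treatment with compound at 0.3, 1 or 3 μM in 0.1% DMSO: 24 h for VHL-based compounds, 72 h for the rest. Western blot of 10 μg lysate gave KRas signal normalized to GAPDH, and percent degradation was expressed relative to the DMSO control.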

| SMILES | Percent Degradation at Indicated Concentration (μM): 0.3 | Percent Degradation at Indicated Concentration (μM): 1 | Percent Degradation at Indicated Concentration (μM): 3 | Dmax [%] |
| --- | --- | --- | --- | --- |
| CCC(=O)N1CCN(c2nc(NCCC(=O)N(C)CCOCCOc3cc(-c4scnc4C)ccc3CNC(=O)[C@@H]3C[C@@H](O)CN3C(=O)[C@@H](c3cc(C)no3)C(C)C)nc3c(F)c(-c4cc(O)cc5ccccc45)c(Cl)cc23)CC1 [compound 330, (2S,4R)-N-(2-(2-(2-(3-((6-chloro-8-fluoro-7-(3-hydroxynaphthalen-1-yl)-4-(4-propionylpiperazin-1-yl)quinazolin-2-yl)amino)-N-methylpropanamido)ethoxy)ethoxy)-4-(4-methylthiazol-5-yl)benzyl)-4-hydroxy-1-((R)-3-methyl-2-(3-methylisoxazol-5-yl)butanoyl)pyrrolidine-2-carboxamide] | C (C ≤ 35) | C (C ≤ 35) | C (C ≤ 35) | ≤ 35 |
| CCC(=O)N1CCN(c2nc(NCCC(=O)N(C)CCOCCOc3cc(-c4scnc4C)ccc3CNC(=O)[C@@H]3C[C@@H](O)CN3C(=O)[C@H](c3cc(C)no3)C(C)C)nc3c(F)c(-c4cc(O)cc5ccccc45)c(Cl)cc23)CC1 [compound 331, (2S,4R)-N-(2-(2-(2-(3-((6-chloro-8-fluoro-7-(3-hydroxynaphthalen-1-yl)-4-(4-propionylpiperazin-1-yl)quinazolin-2-yl)amino)-N-methylpropanamido)ethoxy)ethoxy)-4-(4-methylthiazol-5-yl)benzyl)-4-hydroxy-1-((S)-3-methyl-2-(3-methylisoxazol-5-yl)butanoyl)pyrrolidine-2-carboxamide] | C (C ≤ 35) | C (C ≤ 35) | C (C ≤ 35) | ≤ 35 |
| CCC(=O)N1CCN(c2nc(NCCC(=O)N(C)CCOCCOCCOc3cc(-c4scnc4C)ccc3CNC(=O)[C@@H]3C[C@@H](O)CN3C(=O)[C@@H](c3cc(C)no3)C(C)C)nc3c(F)c(-c4cc(O)cc5ccccc45)c(Cl)cc23)CC1 [compound 332, (2S,4R)-N-(2-(2-(2-(2-(3-((6-chloro-8-fluoro-7-(3-hydroxynaphthalen-1-yl)-4-(4-propionylpiperazin-1-yl)quinazolin-2-yl)amino)-N-methylpropanamido)ethoxy)ethoxy)-ethoxy)-4-(4-methylthiazol-5-yl)benzyl)-4-hydroxy-1-((R)-3-methyl-2-(3-methylisoxazol-5-yl)butanoyl)pyrrolidine-2-carboxamide] | C (C ≤ 35) | C (C ≤ 35) | C (C ≤ 35) | ≤ 35 |
| CCC(=O)N1CCN(c2nc(NCCC(=O)N(C)CCOCCOCCOc3cc(-c4scnc4C)ccc3CNC(=O)[C@@H]3C[C@@H](O)CN3C(=O)[C@H](c3cc(C)no3)C(C)C)nc3c(F)c(-c4cc(O)cc5ccccc45)c(Cl)cc23)CC1 [compound 333, (2S,4R)-N-(2-(2-(2-(2-(3-((6-chloro-8-fluoro-7-(3-hydroxynaphthalen-1-yl)-4-(4-propionylpiperazin-1-yl)quinazolin-2-yl)amino)-N-methylpropanamido)ethoxy)ethoxy)ethoxy)-4-(4-methylthiazol-5-yl)benzyl)-4-hydroxy-1-((S)-3-methyl-2-(3-methylisoxazol-5-yl)butanoyl)pyrrolidine-2-carboxamide] | C (C ≤ 35) | C (C ≤ 35) | C (C ≤ 35) | ≤ 35 |
